# “And” between values parts separate entries of the source, which are not always exact repeats. Equal values may be shown once. Inconclusive results are not listed.
# System: B6C3F1 mice, colon carcinoma 38 s.c., T/C
# Assay: NCI In Vivo Anticancer Drug Screen. Data for tumor model Colon Carcinoma 38 (subcutaneous) in B6C3F1 mice
# Conditions: endpoint: median tumor weight (est.), schedule: Q07DX002 (ip), higher = larger tumour
# Protocol: The antitumor activity of compounds was measured in mice bearing transplantable tumors. Survival or tumor size were measured and the results are expressed as the measurement made in the treated group (T) divided by the measurement made in the vehicle treated control group (C). The tumor model used in this assay is Colon Carcinoma 38 (subcutaneous) in B6C3F1 mice
# [1] = dose: 100.0 mg/kg/injection, vehicle: saline
compound,measurement,setting,value
O=C(CCBr)N1CCN(C(=O)CCBr)CC1,T/C,"dose: 40.0 mg/kg/injection, vehicle: saline with Tween-80",81 % of control
same,T/C,"dose: 80.0 mg/kg/injection, vehicle: saline with Tween-80",20 % of control and 33 % of control
same,T/C,"dose: 320.0 mg/kg/injection, vehicle: saline with Tween-80",6 % of control
O=P(O)(NCCCl)NCCCl,T/C,"dose: 12.5 mg/kg/injection, vehicle: saline",52 % of control
same,T/C,"dose: 25.0 mg/kg/injection, vehicle: saline",100 % of control
same,T/C,"dose: 50.0 mg/kg/injection, vehicle: saline",60 % of control
C[C@@H]1CC[C@]2(C)CC[C@]3(C)C(=CC[C@@H]4[C@@]5(C)CC[C@@H](OC(=O)c6ccc(O)cc6)C(C)(C)[C@@H]5C[C@H](O)[C@]43C)[C@@H]2[C@H]1C(=O)O,T/C,"dose: 0.12 mg/kg/injection, vehicle: saline with Tween-80",164 % of control
same,T/C,"dose: 0.5 mg/kg/injection, vehicle: saline with Tween-80",49 % of control
same,T/C,"dose: 1.0 mg/kg/injection, vehicle: saline with Tween-80",50 % of control
same,T/C,"dose: 2.0 mg/kg/injection, vehicle: saline with Tween-80",50 % of control
NC(Cn1ccc(=O)c(O)c1)C(=O)O (stereo unspecified),T/C,[1],97 % of control
same,T/C,"dose: 400.0 mg/kg/injection, vehicle: saline",54 % of control
same,T/C,"dose: 800.0 mg/kg/injection, vehicle: saline",156 % of control
O=C(O)COc1cccc2c(=O)cc(-c3ccccc3)oc12,T/C,[1],52 % of control
same,T/C,"dose: 200.0 mg/kg/injection, vehicle: saline",109 % of control
CCN(CC)CCOCCO,T/C,"dose: 50.0 mg/kg/injection, vehicle: suspension in saline",150 % of control
same,T/C,"dose: 100.0 mg/kg/injection, vehicle: suspension in saline",160 % of control
N=c1c(C(=O)OCc2ccccc2)ncc(CCl)n1O,T/C,"dose: 50.0 mg/kg/injection, vehicle: saline with Tween-80",76 % of control
same,T/C,"dose: 100.0 mg/kg/injection, vehicle: saline with Tween-80",107 % of control
same,T/C,"dose: 400.0 mg/kg/injection, vehicle: saline with Tween-80",113 % of control
same,T/C,"dose: 800.0 mg/kg/injection, vehicle: saline with Tween-80",72 % of control
Cc1c2ccccc2c(C)c2c1cc(C(=O)O)c1ccccc12,T/C,"dose: 12.5 mg/kg/injection, vehicle: sodium bicarbonate",66 % of control
same,T/C,"dose: 25.0 mg/kg/injection, vehicle: sodium bicarbonate",98 % of control
same,T/C,"dose: 50.0 mg/kg/injection, vehicle: sodium bicarbonate",74 % of control
same,T/C,"dose: 62.5 mg/kg/injection, vehicle: sodium bicarbonate",112 % of control
same,T/C,"dose: 100.0 mg/kg/injection, vehicle: sodium bicarbonate",107 % of control
same,T/C,"dose: 125.0 mg/kg/injection, vehicle: sodium bicarbonate",106 % of control
same,T/C,"dose: 200.0 mg/kg/injection, vehicle: sodium bicarbonate",108 % of control
same,T/C,"dose: 250.0 mg/kg/injection, vehicle: sodium bicarbonate",76 % of control
same,T/C,"dose: 500.0 mg/kg/injection, vehicle: sodium bicarbonate",26 % of control
same,T/C,"dose: 1000.0 mg/kg/injection, vehicle: sodium bicarbonate",23 % of control

# — PubChem BioAssay AID214 (DTP/NCI, 2004)
